Experimental data as given in patent US9220705B2, “Method of treating colorectal cancer” (priority 2013, dated 2015).

Experiments:
[1] = test system: panel of human tumor cell lines (A431, MCF-7, A375, HCT-15, SW480, CaCo-2, DLD-1); assay: MTT cytotoxicity, comparison over the Table 1 panel; type: cell-based; conditions: average over seven cell lines of Table 1
Experimental: (§1) After 24 h, the medium was removed and replaced with a fresh one containing the compound to be studied, at the appropriate concentration, dissolved in 0.9% sodium chloride solution just before use. Triplicate cultures were established for each treatment. After 72 h, each well was treated with […] of a 5 mg mL^−1 MTT saline solution and, after 5 h of incubation, 100 μL of a sodium dodecylsulfate (SDS) solution in 0.01 M HCl were added. After an overnight incubation, the inhibition of cell growth induced by the tested complexes was determined by measuring the absorbance of each well at 570 nm using a BioRad 680 microplate reader. Mean absorbance for each drug dose was expressed as percentage of the control and plotted vs. drug concentration. Dose-response curves were fitted and IC50 values were calculated with four parameter logistic model (4PL).
The cytotoxicity was evaluated by means of the MTT test for 72 h treatment with increasing concentrations of the tested compounds.

[2] = test system: 2008/C13*, LoVo/LoVo-OXP, LoVo MDR; assay: MTT cytotoxicity, comparison over the Table 2 cell lines; type: cell-based, human; conditions: 2008 ovarian and LoVo colon sensitive cells
Experimental: as §1
A LoVo cell line retaining a multidrug resistance phenotype was also considered (LoVo MDR). Cross-resistance profiles were evaluated by means of the resistance factor (RF), which is defined as the ratio between the IC50 value for the resistant cells and that arising from the sensitive cells (Table 2).

Row | SMILES | average cytotoxic activity compared with reference drugs [1] | cytotoxic activity towards sensitive lines compared with reference drugs [2]
1 | O=C1[O][Pt]2([NH]C3CCC(CC3)[NH]2)[O]C(=O)C12CCC2 [Compound 6, [SP-4-2-(cis)]-(1,4-cyclohexanediamine-N,N′)[cyclobutane-1,1-dicarboxylate-O,O′]platinum] | lower than oxaliplatin and cisplatin | less effective than oxaliplatin and cisplatin
2 | O=C1[O][Pt]2([NH][C@H]3CC[C@H](CC3)[NH]2)[O]C1=O [Compound 3, [SP-4-2-(cis)]-(1,4,cyclohexanediamine-N,N′)[ethanedioato(2)-O,O^1]platinum] | lower than that of oxaliplatin and comparable to that of compound 2 and cisplatin | less effective than oxaliplatin and cisplatin towards ovarian sensitive cell line and rather similar to cisplatin against LoVo colon cancer cells
3 | O=C([O][Pt]1([Cl])([Cl])([O]C(=O)C(Cl)Cl)[NH][C@H]2CC[C@H](CC2)[NH]1)C(Cl)Cl [Compound 5, (OC-6-33)-dichloro(cis-1,4-cyclohexanediamine-N,N′)bisdichloroacetateplatinum] | rather similar to oxaliplatin | better than cisplatin and similar to oxaliplatin
